Source: ChEMBL document CHEMBL1201862, “PubChem BioAssay data set” (2004)
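Method: 48-hour compound exposure of cells in 96-well plates, five concentrations, linear interpolation of endpoints. GI50 marks 50% less growth.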 The source made the active and inactive calls. No stated cut-off is given here; in the data, active = GI50 up to about 1.1 µM and inactive = higher.

How the values were obtained:
Experiment in all cases: NCI anticancer screen, dose series, 48 h
786-0 = test system: 786-0
A549 = test system: A549
ACHN = test system: ACHN
BT-549 = test system: BT-549
CAKI-1 = test system: CAKI-1
COLO 205 = test system: COLO 205
DU-145 = test system: DU-145
EKVX = test system: EKVX
HCC 2998 = test system: HCC 2998
HCT-116 = test system: HCT-116
HCT-15 = test system: HCT-15
HOP-62 = test system: HOP-62
HOP-92 = test system: HOP-92
HT-29 = test system: HT-29
IGROV-1 = test system: IGROV-1
KM12 = test system: KM12
LOX IMVI = test system: LOX IMVI
M14 = test system: M14
MCF7 = test system: MCF7
MDA-MB-231 = test system: MDA-MB-231
MDA-MB-435 = test system: MDA-MB-435
MDA-N = test system: MDA-N
MOLT-4 = test system: MOLT-4
NCI-H226 = test system: NCI-H226
NCI-H23 = test system: NCI-H23
NCI-H460 = test system: NCI-H460
NCI/ADR-RES = test system: NCI/ADR-RES
OVCAR-3 = test system: OVCAR-3
OVCAR-4 = test system: OVCAR-4
OVCAR-5 = test system: OVCAR-5
OVCAR-8 = test system: OVCAR-8
PC-3 = test system: PC-3
SF-295 = test system: SF-295
SF-539 = test system: SF-539
SK-MEL-28 = test system: SK-MEL-28
SK-MEL-2 = test system: SK-MEL-2
SK-MEL-5 = test system: SK-MEL-5
SK-OV-3 = test system: SK-OV-3
SN12C = test system: SN12C
SNB-19 = test system: SNB-19
SNB-75 = test system: SNB-75
SW-620 = test system: SW-620
T47D = test system: T47D
U-251 = test system: U-251
UACC-257 = test system: UACC-257
UACC-62 = test system: UACC-62
UO-31 = test system: UO-31
A498 = test system: A498
CCRF-CEM = test system: CCRF-CEM
K562 = test system: K562
Malme-3M = test system: Malme-3M
NCI-H522 = test system: NCI-H522
RPMI-8226 = test system: RPMI-8226
RXF 393 = test system: RXF 393
SF-268 = test system: SF-268
SR = test system: SR
TK-10 = test system: TK-10

For `O=C1/C(=C/c2cccc([N+](=O)[O-])c2)Sc2scc(-c3ccc([N+](=O)[O-])cc3)[n+]21`, the GI50 (786-0) was 16.4 µM (inactive), the GI50 (A549) was 29.6 µM (inactive) and the GI50 (ACHN) was 19.8 µM (inactive). The GI50 (BT-549) was 11.6 µM (inactive), the GI50 (CAKI-1) was 20.6 µM (inactive) and the GI50 (COLO 205) was 36.7 µM (inactive). The GI50 (DU-145) was 35.2 µM (inactive), the GI50 (EKVX) was 18.4 µM (inactive) and the GI50 (HCC 2998) was 16.4 µM (inactive). The GI50 (HCT-116) was 16 µM (inactive), the GI50 (HCT-15) was 14.5 µM and the GI50 (HOP-62) was 16.6 µM (inactive). For the same molecule, the GI50 (HOP-92) was 24.5 µM (inactive), the GI50 (HT-29) was 17.4 µM (inactive) and the GI50 (IGROV-1) was 18.6 µM (inactive). The GI50 (KM12) was 15.2 µM (inactive), the GI50 (LOX IMVI) was 18.5 µM (inactive) and the GI50 (M14) was 60.8 µM (inactive). The GI50 (MCF7) was 24.7 µM (inactive), the GI50 (MDA-MB-231) was 21.9 µM (inactive) and the GI50 (MDA-MB-435) was 16.9 µM (inactive). For the same molecule, the GI50 (MDA-N) was 24.5 µM (inactive), the GI50 (MOLT-4) was 21.1 µM (inactive) and the GI50 (NCI-H226) was 26.3 µM (inactive). The GI50 (NCI-H23) was 15.2 µM (inactive), the GI50 (NCI-H460) was 11.4 µM (inactive) and the GI50 (NCI/ADR-RES) was 19 µM (inactive). The GI50 (OVCAR-3) was 31.6 µM (inactive), the GI50 (OVCAR-4) was 30.4 µM (inactive) and the GI50 (OVCAR-5) was 24.5 µM (inactive). For the same molecule, the GI50 (OVCAR-8) was 31.6 µM (inactive), the GI50 (PC-3) was 30.7 µM (inactive) and the GI50 (SF-295) was 14.8 µM (inactive). For the same molecule, the GI50 (SF-539) was 23.8 µM (inactive), the GI50 (SK-MEL-28) was 25.5 µM (inactive) and the GI50 (SK-MEL-2) was 20.2 µM (inactive). The GI50 (SK-MEL-5) was 27.7 µM (inactive), the GI50 (SK-OV-3) was 69.5 µM (inactive) and the GI50 (SN12C) was 18.3 µM (inactive). The GI50 (SNB-19) was 18.9 µM (inactive), the GI50 (SNB-75) was 11 µM (inactive) and the GI50 (SW-620) was 30 µM (inactive). For the same molecule, the GI50 (T47D) was 44.9 µM (inactive), the GI50 (U-251) was 27.2 µM (inactive) and the GI50 (UACC-257) was 21.8 µM (inactive). The GI50 (UACC-62) was 18.7 µM (inactive) and the GI50 (UO-31) was 11.3 µM (inactive).
In the case of `O=c1[nH]c2ccc(C(F)(F)F)cc2nc1C(F)(F)F`, the GI50 (786-0) is reported as 35.2 µM (inactive), the GI50 (A498) is reported as 25.7 µM (inactive) and the GI50 (A549) is reported as 27.9 µM (inactive). The GI50 (ACHN) was 30.9 µM (inactive), the GI50 (BT-549) was 22.2 µM (inactive) and the GI50 (CAKI-1) was 30.3 µM (inactive). For the same molecule, the GI50 (CCRF-CEM) was 11.1 µM (inactive), the GI50 (COLO 205) was 17.1 µM (inactive) and the GI50 (DU-145) was 23.2 µM (inactive). The GI50 (EKVX) was 29.2 µM (inactive), the GI50 (HCC 2998) was 43.4 µM (inactive) and the GI50 (HCT-116) was 20.9 µM (inactive). For the same molecule, the GI50 (HCT-15) was 27.9 µM, the GI50 (HOP-62) was 18.3 µM (inactive) and the GI50 (HOP-92) was 9.4 µM (inactive). For the same molecule, the GI50 (HT-29) was 29.2 µM (inactive), the GI50 (IGROV-1) was 22.8 µM (inactive) and the GI50 (K562) was 35.7 µM (inactive). The GI50 (KM12) was 22.8 µM (inactive), the GI50 (LOX IMVI) was 20.7 µM (inactive) and the GI50 (M14) was 31.9 µM (inactive). The GI50 (MCF7) was 23 µM (inactive), the GI50 (MDA-MB-231) was 28.3 µM (inactive) and the GI50 (MDA-MB-435) was 31.2 µM (inactive). The GI50 (MDA-N) was 35.7 µM (inactive), the GI50 (MOLT-4) was 23.4 µM (inactive) and the GI50 (Malme-3M) was 21.2 µM (inactive). The GI50 (NCI-H226) was 18.8 µM (inactive), the GI50 (NCI-H23) was 18.1 µM (inactive) and the GI50 (NCI-H460) was 33.9 µM (inactive). The GI50 (NCI-H522) was 17.5 µM (inactive), the GI50 (NCI/ADR-RES) was 28.1 µM (inactive) and the GI50 (OVCAR-3) was 14.9 µM (inactive). The GI50 (OVCAR-4) was 36.6 µM (inactive), the GI50 (OVCAR-5) was 35.6 µM (inactive) and the GI50 (OVCAR-8) was 25.3 µM (inactive). The GI50 (PC-3) was 23.3 µM (inactive), the GI50 (RPMI-8226) was 30.6 µM (inactive) and the GI50 (RXF 393) was 5 µM (inactive). The GI50 (SF-268) was 30.8 µM (inactive), the GI50 (SF-295) was 28.7 µM (inactive) and the GI50 (SF-539) was 21.3 µM (inactive). For the same molecule, the GI50 (SK-MEL-28) was 28.8 µM (inactive), the GI50 (SK-MEL-2) was 15 µM (inactive) and the GI50 (SK-MEL-5) was 17.2 µM (inactive). For the same molecule, the GI50 (SK-OV-3) was 27.1 µM (inactive), the GI50 (SN12C) was 29.4 µM (inactive) and the GI50 (SNB-19) was 28 µM (inactive). The GI50 (SNB-75) was 12.1 µM (inactive), the GI50 (SR) was 39.4 µM (inactive) and the GI50 (T47D) was 13.2 µM (inactive). For the same molecule, the GI50 (TK-10) was 27.9 µM (inactive), the GI50 (U-251) was 35 µM (inactive) and the GI50 (UACC-257) was 23.6 µM (inactive). The GI50 (UACC-62) was 27.9 µM (inactive) and the GI50 (UO-31) was 20.7 µM (inactive).
In the case of `Brc1ccc2c(c1)C1=C(CO2)Cc2ccccc2O1`, the GI50 (786-0) is reported as 22.7 µM (inactive), the GI50 (A498) is reported as 27.4 µM (inactive) and the GI50 (A549) is reported as 21.6 µM (inactive). For the same molecule, the GI50 (ACHN) was 19.2 µM (inactive), the GI50 (BT-549) was 18.2 µM (inactive) and the GI50 (CAKI-1) was 18.2 µM (inactive). The GI50 (CCRF-CEM) was 39.4 µM (inactive), the GI50 (COLO 205) was 17.4 µM (inactive) and the GI50 (DU-145) was 21.5 µM (inactive). The GI50 (EKVX) was 20.9 µM (inactive), the GI50 (HCC 2998) was 17.2 µM (inactive) and the GI50 (HCT-116) was 16.4 µM (inactive). The GI50 (HCT-15) was 17.3 µM, the GI50 (HOP-62) was 15.6 µM (inactive) and the GI50 (HOP-92) was 15.6 µM (inactive). For the same molecule, the GI50 (HT-29) was 23.3 µM (inactive), the GI50 (IGROV-1) was 12.4 µM (inactive) and the GI50 (K562) was 16.2 µM (inactive). For the same molecule, the GI50 (KM12) was 19 µM (inactive), the GI50 (LOX IMVI) was 17.4 µM (inactive) and the GI50 (M14) was 19.3 µM (inactive). For the same molecule, the GI50 (MDA-MB-231) was 16.4 µM (inactive), the GI50 (MDA-MB-435) was 16.9 µM (inactive) and the GI50 (MDA-N) was 13.2 µM (inactive). For the same molecule, the GI50 (MOLT-4) was 20 µM (inactive), the GI50 (Malme-3M) was 20.7 µM (inactive) and the GI50 (NCI-H226) was 17.5 µM (inactive). The GI50 (NCI-H23) was 16.3 µM (inactive), the GI50 (NCI-H522) was 19.7 µM (inactive) and the GI50 (NCI/ADR-RES) was 23 µM (inactive). For the same molecule, the GI50 (OVCAR-3) was 16.2 µM (inactive), the GI50 (OVCAR-4) was 16.8 µM (inactive) and the GI50 (OVCAR-5) was 19.1 µM (inactive). The GI50 (OVCAR-8) was 20.7 µM (inactive), the GI50 (PC-3) was 17.1 µM (inactive) and the GI50 (RPMI-8226) was 18.2 µM (inactive). The GI50 (SF-268) was 19.1 µM (inactive), the GI50 (SF-295) was 18.1 µM (inactive) and the GI50 (SF-539) was 18.6 µM (inactive). The GI50 (SK-MEL-2) was 17.7 µM (inactive), the GI50 (SK-MEL-5) was 15 µM (inactive) and the GI50 (SK-OV-3) was 21.5 µM (inactive). For the same molecule, the GI50 (SN12C) was 18.8 µM (inactive), the GI50 (SNB-75) was 22 µM (inactive) and the GI50 (SR) was 36.2 µM (inactive). For the same molecule, the GI50 (SW-620) was 23.4 µM (inactive), the GI50 (T47D) was 13.1 µM (inactive) and the GI50 (TK-10) was 20.4 µM (inactive). The GI50 (U-251) was 19.1 µM (inactive), the GI50 (UACC-257) was 17.9 µM (inactive) and the GI50 (UACC-62) was 17.2 µM (inactive). The GI50 (UO-31) was 16.5 µM (inactive).
